Entries after “also recorded” stand apart in the source; their conditions may differ.
Columns and labels:
[1] = Measurement of lipophilicity (log P), n-octanol/PBS; type: physicochemical; details: mean of 3
Method: Each of the [^68Ga]1 compounds (1˜2 mci) synthesized in Example 14 was transferred into a vial, and the solvent was removed, to which 1 mL of n-octanol and 1 mL of PBS were added, and the lid was well closed, followed by mixing with a vortex for 1 minute. After the layers were separated, 0.1 mL was taken from each layer and the radiation dose was measured. The radiation dose was measured by repeating 3 times, and the mean value was obtained.

PSMA^+ PC-3 PIP tumors [2] = assay: MicroPET/CT imaging of mice transplanted with prostate cancer cell lines; type: in vivo, nude mouse
Method: A tumor model was prepared by subcutaneously injecting PSMA^+ PC-3 PIP cells (a human prostate cancer cell line) to the right side of the nude mouse hind leg. Each of the ^68Ga-labeled compounds [^68Ga]1e, [^68Ga]1g, [^68Ga]1h and [^68Ga]1k was intravenously injected with 5.5 to 6.5 MBq (148-175 μCi/200 μL), and PET/CT images were obtained using small animal INVEON PET/CT (Siemens medical solutions, Knoxville, USA) for 60 minutes. After 150 minutes, 270 minutes, and 390 minutes, PET/CT images were also obtained for 30 minutes. The obtained PET/CT image results were quantitatively analyzed using Inveon™ Research Workplace (IRW).
FIGS. 1, 2, 3, and 4 are graphs showing the quantitative analysis results of MicorPET/CT images for [^68Ga]1e, [^68Ga]1g, [^68Ga]1h, and [^68Ga]1k in % injected dose (ID)/g, and summarized in Tables 3, 4, 5, and 6, respectively.

PSMA^+ PC-3 PIP tumors [3] = assay: Biodistribution test with mice transplanted with prostate cancer cell lines (gamma counter); type: in vivo, nude mouse; details: 5 hours after injection, gamma counter
Method: After 270 minutes of [^68Ga]1e and [^68Ga]1g injection, microPET/CT images were obtained for 30 minutes, and then each organ (blood, muscle, fat, heart, lung, liver, spleen, stomach, intestine, kidney, bone and tumor) was extracted and the radioactivity thereof was measured using a gamma counter.

PSMA = PSMA (Homo sapiens, UniProt Q04609); details: cited from earlier work
Sequence of PSMA (Q04609 whole entry): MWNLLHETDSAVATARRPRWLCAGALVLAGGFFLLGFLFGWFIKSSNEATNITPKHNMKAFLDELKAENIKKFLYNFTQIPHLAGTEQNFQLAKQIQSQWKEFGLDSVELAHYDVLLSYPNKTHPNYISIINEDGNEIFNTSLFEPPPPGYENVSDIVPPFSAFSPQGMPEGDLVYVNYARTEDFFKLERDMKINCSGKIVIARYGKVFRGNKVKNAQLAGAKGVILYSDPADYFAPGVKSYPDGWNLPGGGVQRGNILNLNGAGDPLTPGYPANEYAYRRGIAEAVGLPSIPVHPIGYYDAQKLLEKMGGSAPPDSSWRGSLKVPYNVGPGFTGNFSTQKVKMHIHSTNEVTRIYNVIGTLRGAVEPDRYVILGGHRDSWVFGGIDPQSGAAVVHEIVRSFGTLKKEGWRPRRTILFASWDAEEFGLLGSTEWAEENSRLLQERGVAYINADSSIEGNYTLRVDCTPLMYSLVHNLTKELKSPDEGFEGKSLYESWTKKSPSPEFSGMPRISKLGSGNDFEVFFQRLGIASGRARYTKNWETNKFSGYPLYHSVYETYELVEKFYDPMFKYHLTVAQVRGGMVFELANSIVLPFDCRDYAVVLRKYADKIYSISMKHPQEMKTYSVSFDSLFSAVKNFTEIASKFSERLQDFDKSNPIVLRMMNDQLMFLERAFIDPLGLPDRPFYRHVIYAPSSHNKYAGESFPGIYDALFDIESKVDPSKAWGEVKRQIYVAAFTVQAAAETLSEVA

O=C(O)CCC(NC(=O)NC(CCCCN(CC(=O)O)C(=O)COCCOCCNC(=O)CN1CCN2CCN3CCN(CC1)CC(=O)[O][68Ga]([O]C(=O)C2)[O]C(=O)C3)C(=O)O)C(=O)O (stereo not shown) [[^68Ga]1e]
logP [1]: −2.88
intake of mouse organ: Bladder (PSMA^+ PC-3 PIP tumors [2]; 10 min after injection): 19.37 ± 0.32 % ID/g
intake of mouse organ: Kidney (PSMA^+ PC-3 PIP tumors [2]; 10 min after injection): 21.37 ± 9.18 % ID/g
intake of mouse organ: Liver (PSMA^+ PC-3 PIP tumors [2]; 10 min after injection): 4.76 ± 0.42 % ID/g
intake of mouse organ: Muscle (PSMA^+ PC-3 PIP tumors [2]; 10 min after injection): 1.46 ± 0.14 % ID/g
intake of mouse organ: Tumor (PIP) (PSMA^+ PC-3 PIP tumors [2]; 10 min after injection): 2.33 ± 0.36 % ID/g
intake of mouse organ: Bladder (PSMA^+ PC-3 PIP tumors [2]; 20 min after injection): 47.31 ± 7.34 % ID/g
intake of mouse organ: Kidney (PSMA^+ PC-3 PIP tumors [2]; 20 min after injection): 10.96 ± 4.32 % ID/g
intake of mouse organ: Liver (PSMA^+ PC-3 PIP tumors [2]; 20 min after injection): 1.96 ± 0.22 % ID/g
intake of mouse organ: Muscle (PSMA^+ PC-3 PIP tumors [2]; 20 min after injection): 1.38 ± 0.11 % ID/g
intake of mouse organ: Tumor (PIP) (PSMA^+ PC-3 PIP tumors [2]; 20 min after injection): 3.64 ± 0.49 % ID/g
intake of mouse organ: Bladder (PSMA^+ PC-3 PIP tumors [2]; 30 min after injection): 55.82 ± 12.46 % ID/g
intake of mouse organ: Kidney (PSMA^+ PC-3 PIP tumors [2]; 30 min after injection): 10.88 ± 7.09 % ID/g
intake of mouse organ: Liver (PSMA^+ PC-3 PIP tumors [2]; 30 min after injection): 1.29 ± 0.05 % ID/g
intake of mouse organ: Muscle (PSMA^+ PC-3 PIP tumors [2]; 30 min after injection): 0.95 ± 0.13 % ID/g
intake of mouse organ: Tumor (PIP) (PSMA^+ PC-3 PIP tumors [2]; 30 min after injection): 4.08 ± 0.60 % ID/g
intake of mouse organ: Bladder (PSMA^+ PC-3 PIP tumors [2]; 40 min after injection): 60.63 ± 15.48 % ID/g
intake of mouse organ: Kidney (PSMA^+ PC-3 PIP tumors [2]; 40 min after injection): 14.92 ± 13.57 % ID/g
intake of mouse organ: Liver (PSMA^+ PC-3 PIP tumors [2]; 40 min after injection): 1.00 ± 0.03 % ID/g
intake of mouse organ: Muscle (PSMA^+ PC-3 PIP tumors [2]; 40 min after injection): 0.61 ± 0.05 % ID/g
intake of mouse organ: Tumor (PIP) (PSMA^+ PC-3 PIP tumors [2]; 40 min after injection): 4.44 ± 0.48 % ID/g
intake of mouse organ: Bladder (PSMA^+ PC-3 PIP tumors [2]; 50 min after injection): 64.24 ± 12.76 % ID/g
intake of mouse organ: Kidney (PSMA^+ PC-3 PIP tumors [2]; 50 min after injection): 15.84 ± 15.60 % ID/g
intake of mouse organ: Liver (PSMA^+ PC-3 PIP tumors [2]; 50 min after injection): 0.80 ± 0.02 % ID/g
intake of mouse organ: Muscle (PSMA^+ PC-3 PIP tumors [2]; 50 min after injection): 0.53 ± 0.05 % ID/g
intake of mouse organ: Tumor (PIP) (PSMA^+ PC-3 PIP tumors [2]; 50 min after injection): 4.56 ± 1.03 % ID/g
intake of mouse organ: Bladder (PSMA^+ PC-3 PIP tumors [2]; 60 min after injection): 67.80 ± 8.56 % ID/g
intake of mouse organ: Kidney (PSMA^+ PC-3 PIP tumors [2]; 60 min after injection): 15.72 ± 16.29 % ID/g
intake of mouse organ: Liver (PSMA^+ PC-3 PIP tumors [2]; 60 min after injection): 0.65 ± 0.04 % ID/g
intake of mouse organ: Muscle (PSMA^+ PC-3 PIP tumors [2]; 60 min after injection): 0.35 ± 0.05 % ID/g
intake of mouse organ: Tumor (PIP) (PSMA^+ PC-3 PIP tumors [2]; 60 min after injection): 4.73 ± 0.98 % ID/g
intake of mouse organ: Bladder (PSMA^+ PC-3 PIP tumors [2]; 150 min after injection): 31.85 ± 35.57 % ID/g
intake of mouse organ: Kidney (PSMA^+ PC-3 PIP tumors [2]; 150 min after injection): 0.70 ± 0.02 % ID/g
intake of mouse organ: Liver (PSMA^+ PC-3 PIP tumors [2]; 150 min after injection): 0.06 ± 0.01 % ID/g
intake of mouse organ: Muscle (PSMA^+ PC-3 PIP tumors [2]; 150 min after injection): 0.02 ± 0.01 % ID/g
intake of mouse organ: Tumor (PIP) (PSMA^+ PC-3 PIP tumors [2]; 150 min after injection): 4.20 ± 0.42 % ID/g
intake of mouse organ: Bladder (PSMA^+ PC-3 PIP tumors [2]; 270 min after injection): 1.45 ± 1.62 % ID/g
intake of mouse organ: Kidney (PSMA^+ PC-3 PIP tumors [2]; 270 min after injection): 0.41 ± 0.16 % ID/g
intake of mouse organ: Liver (PSMA^+ PC-3 PIP tumors [2]; 270 min after injection): 0.03 ± 0.01 % ID/g
intake of mouse organ: Muscle (PSMA^+ PC-3 PIP tumors [2]; 270 min after injection): 0.01 ± 0.01 % ID/g
intake of mouse organ: Tumor (PIP) (PSMA^+ PC-3 PIP tumors [2]; 270 min after injection): 4.05±0.64 % ID/g
excretion, in words (PSMA^+ PC-3 PIP tumors [2]; MicroPET/CT): rapidly excreted through the kidney and bladder; also recorded: rapidly excreted out of the body
Radioactivity in mouse organ: Blood (PSMA^+ PC-3 PIP tumors [3]): 0.01 ± 0.00 % ID/g
Radioactivity in mouse organ: Bone (PSMA^+ PC-3 PIP tumors [3]): 0.00 ± 0.00 % ID/g
Radioactivity in mouse organ: Fat (PSMA^+ PC-3 PIP tumors [3]): 0.01 ± 0.00 % ID/g
Radioactivity in mouse organ: Heart (PSMA^+ PC-3 PIP tumors [3]): 0.01 ± 0.00 % ID/g
Radioactivity in mouse organ: Intestine (PSMA^+ PC-3 PIP tumors [3]): 0.09 ± 0.08 % ID/g
Radioactivity in mouse organ: Kidney (PSMA^+ PC-3 PIP tumors [3]): 0.82 ± 0.51 % ID/g
Radioactivity in mouse organ: Liver (PSMA^+ PC-3 PIP tumors [3]): 0.02 ± 0.01 % ID/g
Radioactivity in mouse organ: Lung (PSMA^+ PC-3 PIP tumors [3]): 0.02 ± 0.01 % ID/g
Radioactivity in mouse organ: Muscle (PSMA^+ PC-3 PIP tumors [3]): 0.01 ± 0.00 % ID/g
Radioactivity in mouse organ: PSMA + PIP (tumor intake rate) (PSMA^+ PC-3 PIP tumors [3]): 7.34 ± 5.49 % ID/g
Radioactivity in mouse organ: Spleen (PSMA^+ PC-3 PIP tumors [3]): 0.01 ± 0.00 % ID/g
Radioactivity in mouse organ: Stomach (PSMA^+ PC-3 PIP tumors [3]): 0.02 ± 0.02 % ID/g

O=C(O)CC[C@H](NC(=O)N[C@@H](CCCCNC(=O)Nc1ccc([125I])cc1)C(=O)O)C(=O)O [[^125I]30]
Kd (PSMA): 0.13 nM
